{
  "source": "patent US20170112760A1",
  "about": "“CELL DELIVERY SYSTEM AND METHOD” (The Queen's University of Belfast, priority 2014, published 2017)",
  "key": {"[1]": {"system": "ZR-75-1 cells", "assay": "Transfection with peptide/pEGFP-N1 nanoparticles, GFP expression by flow cytometry", "assay_type": "cell-based", "settings": "for Transfection Efficiency in ZR-75-1 Cells: peptide/DNA nanoparticles, N:P10", "method": "In order to test the RALA in vitro, small scale transfections were performed carried out. 5×10^4 cells were seeded onto each well of a 96 well plate and the cells incubated under with complete medium standard conditions for 48 hours. The medium was subsequently removed from the plates and 100 μl of transfection medium (Optimem Invitrogen, UK) was added to each well. Cells were incubated for 2 hours at 37° C. and 5% CO2 standard conditions. In the meanwhile complexes were made up using 1 μg of plasmid DNA with the RALA vector and added to the cells when the two hours had passed. 100 μl of the each N:P ratio were added to each well of the cells. Cells were then incubated for a further 4 hours under standard conditions and the medium with RPMI-1640 supplemented with +10% FCS. (FIG. 4, 31(+Chloroquine), 32 (+Bafilomycin), 33 (+KALA NPs), 34 (+Lipofectamine), 35).\nZR-75-1 & PC-3 cells that were transfected with RALA/pEGFP-N1 complexes were trypsinised and washed twice with 2% formaldehyde in phosphate buffered saline. The expression of green fluorescent protein was measured by flow cytometry using FACS calibur system (BD Bioscience, UK). The data was analysed using the Flo-Jo software program and fluorescent intensity is reported at 4% gating. (FIG. 7b, 11, 31, 32, 33, 34, 35, 57 (+RAT/pEGFP-N1))."}, "[2]": {"assay": "Nanoparticle size and charge analysis (DLS, zeta potential, Malvern Zetasizer)", "assay_type": "physicochemical", "settings": "peptide/DNA nanoparticles, N:P10", "method": "In order to obtain particle size and charge distributions the mean hydrodynamic particle size measurements RALA complexes were performed using Dynamic Light Scattering (DLS). Dynamic Light Scattering is based upon the principle that when particles are illuminated with a laser, due to Brownian motion there will be scattering of the light. The intensity of the scattered light fluctuates as a result of this Brownian motion caused by bombardment of the particles by solvent molecules. A correlation curve reflecting the decay rate is generated based on fluctuations of the scattered light where a slower correlation decay rate represents a slower moving particle. Based on the Stokes-Einstein equation larger particles move more slowly and, thus, the correlation function can be used to determine the size distribution of the particles. dynamic light scattering (DLS) was used.\nSurface charge measurements of the RALA nanoparticles were determined by Laser Doppler Velocimetry. The zeta potential of the particles was measured using disposable foltable zeta cuvettes. Zeta cuvettes for the measurement of zeta potential were first washed with 70% ethanol, followed by two rinses with double distilled H2O prior to loading the sample. Enough diluted sample used for size measurement was used for determination of zeta potential.\nThe nanoparticles were made up at an appropriate range of N:P ratios with at least using 2 μg of DNA in each sample. Nanoparticles were analysed using either and analysis was completed on either the Zetasizer-HS3000 (Malvern Instruments) or the Zetasizer-Nano instrument with DTS software (Malvern Instruments, UK). Zetasizer-Nano (Malvern Instruments) (FIGS. 3, 9, 17-21, 41, 48 & 55)."}, "[3]": {"system": "PC-3 prostate cancer cell xenograft", "assay": "PC-3 xenograft model, intratumoural RALA/alendronate", "assay_type": "in vivo, BALB-C SCID mice", "settings": "thrice weekly"}, "[4]": {"system": "PC-3 prostate cancer cells", "assay": "Cell proliferation assay (manual cell counts), bisphosphonates and RALA/BP nanoparticles", "settings": "for maximum cell kill: FIG. 51", "protocol": "FIG. 51: Cell viability was evaluated by manual counting of the viable adherent cells using a haemocytometer. PC-3 prostate cancer cells were seeded in a 96-well flat-bottom tissue culture plate at a density of 1×10^4 cells per well and incubated in complete culture medium for 24 h. Two hours prior to transfection the cells were conditioned in OptiMEM serum-free medium and subsequently treated with solutions of BP to achieve a final exposure concentration of 5 μM to 1 mM. RALA/BP nanoparticles were prepared using a mass ratio of 10:1 such that the final concentration of BP per well was in the range 5 μM to 75 μM. Cells were incubated at 37° C. with 5% CO2 for 6 h before medium was replaced with completed culture medium and left to incubate for 72 h. Following incubation the cells were trypsinised and counted. Cell viability was expressed as a percentage of the untreated control where the untreated control is considered to be 100% viable. Dose-response curves were obtained for free BP and RALA/BP allowing determination of EC50 values for each. EC50 values refer to the concentration that induces a response halfway between the baseline and the maximum plateau obtained.\nCell viability was evaluated by manual counting of the viable adherent cells using a haemocytometer as described in. PC-3 prostate cancer cells were seeded in a 96-well flat-bottom tissue culture plate at a density of 1×10^4 cells per well and incubated in complete culture medium for 24 h. Two hours prior to transfection the cells were conditioned in OptiMEM serum-free medium (Invitrogen, UK) optimised for transfection. Cells were treated with solutions of BP to achieve a final exposure concentration of 5 μM to 1 mM. RALA/BP nanoparticles were prepared using a mass ratio of 10:1 such that the final concentration of BP per well was in the range 5 μM to 75 μM. Cells were incubated at 37° C. with 5% CO2 for 6 h before medium was replaced with completed culture medium and left to incubate for 72 h. Following incubation the cells were trypsinised and counted. Cell viability was expressed as a percentage of the untreated control where the untreated control is considered to be 100% viable. Dose-response curves were obtained for free BP and RALA/BP allowing determination of EC50 values for each. EC50 values refer to the concentration that induces a response halfway between the baseline and the maximum plateau obtained (FIG. 46, 51)."}, "[5]": {"assay": "Immune response on repeated intravenous administration (ELISAs, Greiss test)", "assay_type": "in vivo, C57/BL6 mice", "settings": "first week", "method": "FIG. 8: Immune response of C57BL/6 mice injected with PBS only, PEI only, RALA only, DNA only, PEI/DNA or RALA/DNA nanoparticles. For each injection the equivalent to N:P 10 with 10 μg of DNA was injected. Mice received one injection per week for three weeks. 48 h after each injection three mice were sacrificed and the serum was extracted for analysis. a) IgG, b) IgM, c) IL-1β, d) IL-6 and e) Greiss test for total nitrites.\nFor the harvesting of blood and intraperitoneal macrophages, cervical dislocation was the preferred method of euthanasia. Cardiac puncture was performed using a 21 G gauge needle (BD Biosciences, UK). The needle was placed horizontally slightly to the left side of the sternum to go up through the diaphragm. The needle was then withdrawn very slowly until 500 μl of blood was collected and placed in an eppendorf. The eppendorf was then stored at room temperature with an open lid to facilitate coagulation. After 30 min the eppendorfs were centrifuged at 2000 rpm for 10 min. The supernatant containing the serum was carefully decanted and placed into a clean eppendorf and stored at −20° C. until further use. When harvesting intraperitoneal macrophages an incision was made and the peritoneal cavity was flushed out with 30% sucrose (Sigma, UK) solution. The macrophages were stored at 4° C. until they could be cultured (FIG. 8). […]"}},
  "note": "Where two headings read alike, the source gives them in different places. Ends that are not written are not given here.",
  "data": [
    {"molecule": "REARLARALARALARELARALARALRAREA (amphipathic peptide sequence (Table 2)) [Peptide 6, H Replaced with E and W replaced with R and C replaced with R]", "values": [
      {"measurement": "Transfection Efficiency in ZR-75-1 Cells", "setting": "[1]", "value": 43, "unit": "%"},
      {"measurement": "Best Size (nm)", "setting": "[2]", "value": 308, "unit": "nm"},
      {"measurement": "Charge (mV)", "setting": "[2]", "value": 6, "unit": "mV"}
    ]},
    {"molecule": "NCCCC(O)(P(=O)(O)O)P(=O)(O)O", "note": "[alendronate]", "values": [
      {"measurement": "effect on tumour growth vs untreated control", "setting": "[3]", "value": "high statistical significance when compared to the untreated control"},
      {"measurement": "EC50", "setting": "[4]; FIG. 16: 10 μM to 250 μM, six hours, 72 hours recovery", "value": 97.9, "unit": "µM"},
      {"measurement": "EC50", "setting": "[4]; FIG. 51: 6 h treatment, 72 h incubation, mass ratio 10:1", "value": 100, "unit": "µM"}
    ]},
    {"molecule": "O=P(O)(O)C(O)(Cc1cccnc1)P(=O)(O)O", "note": "[risedronate]", "values": [
      {"measurement": "EC50", "setting": "[4]", "value": 78, "unit": "µM"},
      {"measurement": "maximum cell kill", "setting": "[4]", "value": 20, "unit": "%"}
    ]},
    {"molecule": "REARLARALARALARLARALARALRACEA (amphipathic peptide sequence (Table 2)) [Peptide 4, H Removed and W replaced with R]", "values": [
      {"measurement": "Transfection Efficiency in ZR-75-1 Cells", "setting": "[1]", "value": 50, "unit": "%"},
      {"measurement": "Charge (mV)", "setting": "[2]", "value": 12, "unit": "mV"}
    ]},
    {"molecule": "WEARLARALARALARELARALARALRACEA (amphipathic peptide sequence (Table 2)) [Peptide 3, H replaced with glutamic acid (E)]", "values": [
      {"measurement": "Transfection Efficiency in ZR-75-1 Cells", "setting": "[1]", "value": 41, "unit": "%"},
      {"measurement": "Charge (mV)", "setting": "[2]", "value": 24, "unit": "mV"}
    ]},
    {"molecule": "WEARLARALARALARLARALARALRACEA (amphipathic peptide sequence (Table 2)) [Peptide 2, H removed]", "values": [
      {"measurement": "Transfection Efficiency in ZR-75-1 Cells", "setting": "[1]", "value": 55, "unit": "%"},
      {"measurement": "Charge (mV)", "setting": "[2]", "value": 22, "unit": "mV"}
    ]},
    {"molecule": "WEARLARALARALARHLARALARALRACEA [RALA]", "values": [
      {"measurement": "TNFα response", "setting": "[5]", "value": "significantly lower initial response of TNFα than the PEI only treated animals"}
    ]},
    {"molecule": "WEARLARALARALARHLRACEA (22mer protein sequence (Table 2)) [Peptide 22mer, comparative peptide, reference compound]", "values": [
      {"measurement": "ability to condense DNA into nanoparticles and transfect cells", "setting": "[1]", "value": "unable to condense DNA into nanoparticles and transfect cells"}
    ]},
    {"molecule": "REARLARALARALARLARALARALRAREA (amphipathic peptide sequence (Table 2)) [Peptide 5, H Removed and W replaced with R and C replaced with R]", "values": [
      {"measurement": "Transfection Efficiency in ZR-75-1 Cells", "setting": "[1]", "value": 46, "unit": "%"},
      {"measurement": "Charge (mV)", "setting": "[2]", "value": 13, "unit": "mV"}
    ]},
    {"molecule": "CC(O)(P(=O)(O)O)P(=O)(O)O", "note": "[etidronate]", "values": [
      {"measurement": "percentage cell survival with increasing BP", "setting": "[4]; FIG. 51d", "value": "no reduction in percentage cell survival with increasing BP"}
    ]},
    {"molecule": "O=P(O)(O)C(O)(Cn1ccnc1)P(=O)(O)O", "note": "[zoledronate]", "values": [
      {"measurement": "EC50", "setting": "[4]", "value": 27.6, "unit": "µM"},
      {"measurement": "maximum cell kill", "setting": "[4]", "value": 82, "unit": "%"}
    ]}
  ]
}
